Laboratory results published in patent US10246463B2, “Hypoxia-inducible factor 1 (HIF-1) inhibitors” (The United States of America, as represented by the …, priority 2015, dated 2019).
Values after ≈ are worked out from the molar mass of the structure shown. Values joined by “and” are separate entries in the source; they are usually repeats but may differ in a detail not shown here. Equal values may be shown once. Read-outs that look alike come from different tables or passages of the source. Values belong to the molecule of their own block, whether it stands above or below them.

How the values were obtained:
[1] = tested on: P. falciparum D6 (chloroquine sensitive); test: Antimalarial activity, plasmodial LDH assay, D6 strain; type: cell-based; settings: for IC50: Plasmodium falciparum, read-out: IC50 against D6
Protocol: (§1) The antimalarial activity was determined against chloroquine sensitive (D6) and chloroquine resistant (W2) strains of P. falciparum by measuring plasmodial LDH (lactate dehydrogenase) activity according to the procedure of Makler and Hinrichs (Am. J. Trop. Med. Hyg. 1993, 48:205). A suspension of red blood cells infected with D6 or W2 strain of P. falciparum (200 μL, with 2% parasitemia and 2% hematocrit in RPMI 1640 medium supplemented with 10% human serum and 60 μg/mL Amikacin) was added to the wells of a 96-well plate containing 10 μL of serially diluted samples (plant extracts, column fractions or pure compounds). The plate was incubated at 37° C., for 72 h in a modular incubation chamber with 90% N2, 5% O2, and 5% CO2. Parasitic LDH activity was determined by mixing 20 μL of the incubation mixture with 100 μL of the Malstat reagent and incubating at room temperature for 30 min Twenty microliters of a 1:1 mixture of NBT/PES (nitro blue tetrazolium/phenazine ethosulfate) (Sigma, St. Louis, Mo.) was then added and the plate was further incubated in the dark for 1 h. The reaction was stopped by adding 100 μL of a 5% acetic acid solution and the absorbance was read at 650 nm. Artemisinin and chloroquine were included as the drug controls. IC50 values were computed from the dose response curves of growth inhibition.

[2] = tested on: P. falciparum W2 (chloroquine resistant); test: Antimalarial activity, plasmodial LDH assay, W2 strain; type: cell-based; settings: for IC50: Plasmodium falciparum, read-out: IC50 against W2
Protocol: as §1

[3] = biological target: T1, p300 (CH1) / HIF-1α (C-TAD) interaction (Homo sapiens, UniProt Q09472+Q16665); test: p300 CH1 / HIF-1α C-TAD binding assay (DELFIA, europium anti-GST); settings: for IC50: dose-response format of the screening assay
T1 construct: GST-p300-CH1 (aa 323-423); synthetic biotinylated HIF-1αC-TAD (aa 786-826; Peptide Protein Research Ltd., Fareham, UK)
Protocol: Binding of soluble CH1 to the immobilized C-TAD was measured by the fluorescence of a europium-tagged anti-GST antibody.
Bound GST-CH1 was detected using a europium-labeled antibody to GST (PerkinElmer Life Sciences). […] Plates were washed four times with TBST (50 mM Tris, 150 mM NaCl, 0.05% Tween 20, pH 8.0) buffer. […] After 2 h, plates were washed four times in TBST. DELFIA enhancement solution (PerkinElmer Life Sciences) was added and plates were placed on a rocker for 30 min, before reading with a Victor3 plate reader (PerkinElmer Life Sciences) or a Pherastar Plate Reader (BMG Labtech), using the europium setting under time-resolved fluorescence. Values were corrected for background and expressed as a percentage of controls (DMSO) to provide the percentage of CH1 binding.

[4] = tested on: 456 protein kinase enzymes; test: commercial panel of 456 protein kinase enzymes (DiscoverRx); type: binding
Text: (§2) In an effort to evaluate a broader range of potential activities of interest, compound 1 was screened against a commercial panel of 456 protein kinase enzymes and 32 bromodomain proteins (DiscoverRx, San Diego, Calif.), and it had no activity against any of these targets.

32 bromodomain proteins = test: commercial panel of 32 bromodomain proteins (DiscoverRx); type: binding
Text: as §2

NCI-60 cell line = NCI-60 cell line anticancer screen; type: cell-based; settings: standard initial concentration of 40 μM
[5] = tested on: HIF-1α activation in HCT116 cells; test: HRE luciferase reporter of HIF-1α activation in HCT116 cells under anoxic conditions; type: cell-based; settings: FIG. 7
Protocol: Activation was monitored via a hypoxia response element (HRE) luciferase signal. When HIF-1α is activated, it results in an increased HRE luciferase signal. […] Data were analyzed using an ordinary one-way ANOVA with Dunnett's multiple comparisons test (reference group: DMSO.H). * P≤0.05, ** P≤0.01, *** P≤0.0001.

HCT116 cells = test: CCK-8 cytotoxicity in HCT116 cells under hypoxic conditions; type: cell-based; settings: 18 h treatment, hypoxic conditions (0.5% O2), FIG. 8
Text: Results are presented as the average cell viability number (% hypoxic control) of triplicate experiments ±S.E.M. (n=3-4).

[6] = pKa determination by UV-Vis analysis at varied pH; type: physicochemical; settings: aqueous buffers at varied pH, 0.1% DMSO, read-out: pKa of the titratable proton
Protocol: The cuvettes were allowed to equilibrate for 1 h before a UV-Vis curve was obtained. The pKa for 1 was determined by fitting Δ abs at 394 and 440 nm to a polynomial curve, as described previously (Yapici et al., J. Am. Chem. Soc. 2015, 137:1073-1080).

Stability in NMR solvent = type: physicochemical
[7] = read-out: IC50, blocking binding of soluble CH1 to immobilized C-TAD

T1 sequence (Q09472 323-423): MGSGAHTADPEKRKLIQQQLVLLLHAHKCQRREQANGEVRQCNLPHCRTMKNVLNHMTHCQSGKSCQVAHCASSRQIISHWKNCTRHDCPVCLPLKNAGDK
T1 sequence (Q16665 786-826): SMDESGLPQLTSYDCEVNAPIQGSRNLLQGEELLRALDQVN

SMILES: CCN(CC)CCCC(C)Nc1ccnc2cc(Cl)ccc12 (stereo not drawn) [chloroquine, reference compound]
IC50 ([1]; D6, 72 h): 0.0154 mg/L (≈ 0.0481 µM)
IC50 ([2]; W2, 72 h): 0.161 mg/L (≈ 0.503 µM)

SMILES: COc1ccc(C2(c3nc(N)[nH]c3-c3ccc(O)cc3)N=C3N=CC=C4c5ccccc5N=C2N43)cc1 (stereo not drawn) [Eudistidine C, eudistidine C]
IC50 [3, 7]: ~75 µM
% growth of D6 strain of P. falciparum ([1]; 528.89 ng/mL): 91%
% growth of D6 strain of P. falciparum ([1]; 1586.67 ng/mL): 56%
% growth of D6 strain of P. falciparum ([1]; 4760 ng/mL): 9%
IC50 ([1]; D6, growth inhibition, 72 h): 1.7 mg/L (≈ 3.49 µM)
% growth of W2 strain of P. falciparum ([2]; 528.89 ng/mL): 75%
% growth of W2 strain of P. falciparum ([2]; 1586.67 ng/mL): 22%
% growth of W2 strain of P. falciparum ([2]; 4760 ng/mL): 6%
IC50 ([2]; W2, growth inhibition, 72 h): 0.9 mg/L (≈ 1.85 µM)
stability in DMSO-d6 (Stability in NMR solvent): somewhat unstable

SMILES: O=c1nc2nccc3c4ccccc4nc1N23 [Eudistidine B, eudistidine B]
inhibition of CH1 (p300)/C-TAD (HIF-1α) interaction ([3]; at a high dose of 250 μM): no inhibition

The next lines start with results.

IC50 ([3]; read-out: IC50, CH1 (p300)/C-TAD (HIF-1α) interaction (converted)): ~290 µM
SMILES: O=C(O)c1ccc(C2(O)N=C3N=CC=C4c5ccccc5N=C2N43)cc1 (stereo not drawn) [EA-2]

IC50 ([1]; D6, growth inhibition, 72 h): 0.0072 mg/L (≈ 0.0255 µM)
IC50 ([2]; W2, growth inhibition, 72 h): 0.0041 mg/L (≈ 0.0145 µM)
SMILES: C[C@@H]1CC[C@H]2[C@@H](C)C(=O)O[C@@H]3O[C@@]4(C)CC[C@@H]1[C@]32OO4 [artemisinin, reference compound]

inhibition of HIF-1α binding to p300, comparison of salt forms and natural/synthetic material ([3]; FIGS. 5A-5E, 6A-6C, listed as natural eudistidine A, free base): similarly inhibit
IC50 [3, 7]: ~75 µM and 75 µM
activity against 456 protein kinase enzymes [4]: no activity
IC50 ([1]; D6, growth inhibition, 72 h): 0.77 mg/L (≈ 2.33 µM)
IC50 ([2]; W2, growth inhibition, 72 h): 0.58 mg/L (≈ 1.76 µM)
pKa [6]: 5.1 ± 0.1
SMILES: COc1ccc(C2(O)N=C3N=CC=C4c5ccccc5N=C2N43)cc1 (stereo not drawn) [Eudistidine A, eudistidine A]
activity against 32 bromodomain proteins (32 bromodomain proteins): no activity
cytotoxic activity in NCI-60 screen (NCI-60 cell line): no significant cytotoxic activity
blocking of HIF-1α activation (HRE luciferase signal) [5]: block HIF-1α activation
CCK-8 cytotoxicity/growth inhibitory activity (HCT116 cells): only modest cytotoxicity/growth inhibitory activity
% growth of D6 strain of P. falciparum ([1]; 528.89 ng/mL): 72%
% growth of D6 strain of P. falciparum ([1]; 1586.67 ng/mL): 6%
% growth of D6 strain of P. falciparum ([1]; 4760 ng/mL): 2%
% growth of W2 strain of P. falciparum ([2]; 528.89 ng/mL): 55%
% growth of W2 strain of P. falciparum ([2]; 1586.67 ng/mL): 1%
% growth of W2 strain of P. falciparum ([2]; 4760 ng/mL): 1%

inhibition of CH1 (p300)/C-TAD (HIF-1α) interaction ([3]; even at high dose): no inhibition
SMILES: OC1(c2ccccc2)N=C2N=CC=C3c4ccccc4N=C1N32 (stereo not drawn) [EA-1]
